The record followed here is publication PMC4729137, “Functional analysis of androgen receptor mutations that confer anti-androgen resistance identified in circulating cell-free DNA from prostate cancer patients” (Genome Biology, 2016).

Molecules are shown by their SMILES. pEC50: −log10 of the molar value.

The target of this assay is T1, M896T-AR (Homo sapiens, UniProt P10275, M896T).
T1 sequence (P10275 1-920 M896T): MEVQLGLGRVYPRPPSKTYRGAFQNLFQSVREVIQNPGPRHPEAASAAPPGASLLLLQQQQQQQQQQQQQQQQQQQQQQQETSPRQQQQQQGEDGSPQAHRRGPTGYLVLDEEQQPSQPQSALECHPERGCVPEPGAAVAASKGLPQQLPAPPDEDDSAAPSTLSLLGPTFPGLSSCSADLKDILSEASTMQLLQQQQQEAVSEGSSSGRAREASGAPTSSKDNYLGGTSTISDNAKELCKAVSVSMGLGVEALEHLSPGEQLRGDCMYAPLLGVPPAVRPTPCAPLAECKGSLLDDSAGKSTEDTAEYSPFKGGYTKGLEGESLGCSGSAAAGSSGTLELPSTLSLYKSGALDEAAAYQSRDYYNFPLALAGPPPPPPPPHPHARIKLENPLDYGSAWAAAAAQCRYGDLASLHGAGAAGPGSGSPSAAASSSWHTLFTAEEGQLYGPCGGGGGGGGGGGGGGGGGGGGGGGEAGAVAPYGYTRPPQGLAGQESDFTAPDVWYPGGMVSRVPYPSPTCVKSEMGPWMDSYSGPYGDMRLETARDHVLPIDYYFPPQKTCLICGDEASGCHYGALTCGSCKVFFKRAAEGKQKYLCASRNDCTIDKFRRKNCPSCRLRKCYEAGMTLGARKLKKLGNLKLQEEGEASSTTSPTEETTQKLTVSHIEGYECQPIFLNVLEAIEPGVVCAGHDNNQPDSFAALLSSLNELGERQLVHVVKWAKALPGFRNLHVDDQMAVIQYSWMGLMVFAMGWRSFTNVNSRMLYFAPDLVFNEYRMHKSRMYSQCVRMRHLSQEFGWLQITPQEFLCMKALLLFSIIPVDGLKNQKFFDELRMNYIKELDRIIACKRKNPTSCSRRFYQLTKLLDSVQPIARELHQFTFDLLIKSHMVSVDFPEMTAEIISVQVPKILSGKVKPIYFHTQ
The assay can be described thus: cell-based.

For `C[C@]12CCC(=O)C=C1CC[C@@H]1[C@@H]2[C@@H](O)C[C@@]2(C)[C@H]1CC[C@]2(O)C(=O)CO` [hydrocortisone], the pEC50 was less than 6.30.

As usually defined, the pEC50 is −log10 of the EC50, conventionally taken in molar units. Lower therefore signals a high EC50.
